The results in this text go back to patent US20090004664A1, “HCV NS3 replicon shuttle vectors” (ROCHE PALO ALTO LLC, priority 2007, published 2009).

What all share (format): cell-based, HCV
Assay [1] concerns replicon containing patient-derived NS3 TN132-6 (NS3 V36M, GT1a clinical isolate TN132). The experiment in a line: Replicon phenotypic assay, replicon containing patient-derived NS3 TN132-6. Conditions: Hepatitis C virus, Huh-7. The method, then: (§1) Five micrograms of DNA plasmids were linearized by Sca I restriction enzyme (Roche). After overnight digestion at 37° C., the DNA was purified using Qiagen PCR purification kit. One microgram of linearized DNA was used for the in vitro transcription using T7 Mega script kit following manufacturer's protocol (Ambion). After 2 hours of incubation at 37° C., DNase treatment was performed for 30 minutes at 37° C. to remove the DNA template. In vitro transcribed RNA was then purified using NucAway Spin Column following manufacturer's protocol (Ambion).
(§2) Cured hepatoma cell line Huh7 were cultured at 37° C. in a humidified atmosphere with 5% CO2 in Dulbecco's Modified Eagle Medium (DMEM) supplemented with Glutamax™ and 100 mg/ml sodium pyruvate (Cat# 10569-010). The medium was further supplemented with 10% (v/v) FBS (Cat# 16000-036) and 1% (v/v) penicillin/streptomycin (Cat# 15140-122). All reagents were from Invitrogen/Gibco.
(§3) Four million cured Huh7 cells were transfected with 5 μg of in vitro transcribed RNA using electroporation. […] Inhibitors were added 24 hours post-transfection in 3 fold dilutions at a final DMSO concentration of 1% and firefly luciferase reporter signal was read 72 hours after addition of inhibitors using the Luciferase Assay system (Promega, cat #E1501). […]

Assay [2] deals with replicon containing patient-derived NS3 TN132-2 (NS3 V36M, GT1a clinical isolate TN132). The assay is described as follows: Replicon phenotypic assay, replicon containing patient-derived NS3 TN132-2. Particulars: Hepatitis C virus, Huh-7. The protocol:
as §1, §2, §3
(Replicon systems follow genome replication, usually without infectious particles.)

For assay [3], the system named is replicon containing patient-derived NS3 of sample TN-132 (V36M mutation in the NS3 gene). The assay is described as follows: Replicon phenotypic assay, patient sample TN-132. Particulars: sample TN-132 carrying V36M mutation in the NS3 gene. The method, then:
as §1, §2, §3

Assay [4] relates to replicon containing patient-derived NS3 2209-23. The assay is described as follows: Replicon phenotypic assay, replicon containing patient-derived NS3 2209-23. Conditions: Hepatitis C virus, Huh-7; 2209-23 replicon in cured Huh7 cells; inhibitor added 24 h post-transfection, luciferase read 72 h later. The method, then: as §1, §2, §3
Assay [5] concerns Genotype-1a template NS3 shuttle vector (H77NS3) replicon. The assay is described as follows: Replicon phenotypic assay (transient replicon, firefly luciferase), Genotype-1a template NS3 shuttle vector. Conditions: Hepatitis C virus, Huh-7; H77 NS3 replicon in cured Huh7 cells; inhibitor added 24 h post-transfection, luciferase read 72 h later. The method, then: as §1, §2, §3
Assay [6] has as its system replicon containing patient-derived NS3 TN132-1 (NS3 V36M, GT1a clinical isolate TN132). The assay is described as follows: Replicon phenotypic assay, replicon containing patient-derived NS3 TN132-1. Particulars: Hepatitis C virus, Huh-7. The protocol:
as §1, §2, §3

The IC50 is the point on the concentration scale where inhibition reaches its midpoint. The low end stands for greater potency, the high end for weaker potency. As to `CCC[C@H](NC(=O)[C@@H]1[C@H]2CCC[C@H]2CN1C(=O)[C@@H](NC(=O)[C@@H](NC(=O)c1cnccn1)C1CCCCC1)C(C)(C)C)C(=O)C(=O)NC1CC1` [VX-950], the IC50 was 1470 nM in assay [1]; 2610 nM in assay [2]; 630 nM in assay [4]; 440 nM in assay [5]; 2370 nM in assay [6]. The “sensitivity of sample TN-132 to the inhibitor” value in assay [3] is on record as “reduced sensitivity”.
